Measured values published in patent US20100285959A1, “HERBICIDAL MIXTURES” (priority 2006, published 2010).

What was measured:
[1] = system: ivyleaf morningglory (IPOHE); assay: Test 10 field trial, preemergence; format: in vivo, Ipomoea hederacea; conditions: 28 DAA
Excerpt: (§1) Corn seeds (hybrid ‘Pioneer 33P65 RR’) were planted in mid spring season, 2.5 cm deep in a silt loam soil. Plots were 9.1 m long by 3.0 m wide with rows spaced 76 cm apart. The field was managed using conventional tillage practices. […] Results are the means of the three replicates.

velvetleaf (ABUTH) = assay: Test 8 field trial, preemergence; format: in vivo, Abutilon theophrasti
Excerpt: (§2) Corn seeds (hybrid ‘Pioneer 31G96’) were planted in mid spring season, 3.8 cm deep in a clay loam soil having 2% organic matter and a pH of 6.6. Plots were 6.1 m long by 3.0 m wide with rows spaced 76 cm apart. Seeds were spaced 15 cm apart within the rows. The field was managed using conventional tillage practices. […] A few of the weed species could not be evaluated at every timing. […] Results are the means of the three replicates.

large crabgrass (DIGSA) = assay: Test 5 field trial, postemergence; format: in vivo, Digitaria sanguinalis
Excerpt: Corn seeds (hybrid ‘Pioneer 38H69’) were planted in mid spring season, 5.1 cm deep in a silty clay loam soil having 3% organic matter and a pH of 6.5. Plots were 9.1 m long by 3.0 m wide with rows spaced 76 cm apart. The field was managed using conventional tillage practices. […] All treatments included a surfactant except glufosinate treatments, both alone and in combination. […] Results are summarized in Table 5 and are the means of the three replicates.

corn (ZEAMD) [2] = assay: Test 10 field trial, preemergence; format: in vivo, Zea mays ssp. indentata
Excerpt: as §1

redroot pigweed (AMARE) = assay: Test 2 field trial, preemergence; format: in vivo, Amaranthus retroflexus; set-up: scale not given here
Excerpt: as §2

alexandergrass (BRAPL) = assay: Test 11 field trial, preemergence; format: in vivo, Brachiaria plantaginea; set-up: scale not given here; conditions: alone or + atrazine 1500 or metolachlor 2500
Excerpt: Corn seeds (hybrid ‘Pioneer 3041’) were planted in mid spring season, 5 cm deep in a clay soil having 2.6% organic matter and a pH of 5.6. Plots were 8 m long by 1.5 m wide with rows spaced 80 cm apart. Seeds were spaced 15 cm apart within the rows. The field was managed using conventional tillage practices. […] Treatments consisted of Compound 2 or
Goosegrass was not evaluated 16 or 91 days after application.

[3] = system: Pennsylvania smartweed (POLPY); assay: Test 6 field trial, postemergence; format: in vivo, Polygonum pensylvanicum
Excerpt: (§3) Corn seeds (hybrid ‘Pioneer 35Y62’) were planted in mid spring season, 3.8 cm deep in a silt loam soil having 4% organic matter and a pH of 5.8. Plots were 10.7 m long by 1.5 m wide with rows spaced 76 cm apart. Seeds were spaced 18 cm apart within the rows. The field was managed using conventional tillage practices. […] All treatments included a surfactant except glufosinate treatments, both alone and in combination. […] Results are summarized in Table 6 and are the means of the three replicates.

giant foxtail (SETFA) = assay: Test 8 field trial, preemergence; format: in vivo, Setaria faberi
Excerpt: as §2

corn (ZEAMD) [4] = assay: Test 7 field trial, preemergence; format: in vivo, Zea mays ssp. indentata
Experimental: Plots were 7.6 m long by 3.0 m wide with rows spaced 76 cm apart. Seeds were spaced 15 cm apart within the rows. The field was managed using conventional tillage practices. […] Wild radish was evaluated 14 and 28 days after application. […] Results are the means of the three replicates.

[5] = system: common lambsquarters (CHEAL); assay: Test 6 field trial, postemergence; format: in vivo, Chenopodium album
Excerpt: as §3

corn (ZEAMD) [6] = assay: Test 2 field trial, preemergence; format: in vivo, Zea mays ssp. indentata; conditions: hybrid Pioneer 31G96, corn (Zea mays ssp. indentata), in vivo, 55 days after application
Excerpt: as §2

[7] = system: common lambsquarters (CHEAL); assay: Test 23 growth chamber, postemergence; format: in vivo, Chenopodium album; conditions: 21 DAA
Experimental: A test was conducted to evaluate the effects on winter barley (HORVW, Hordeum vulgare L.), winter wheat (TRZAW, Triticum aestivum L.), and several weed species of mixtures of Compound 2 with the commercial herbicides (2,4-dichlorophenoxy)acetic acid (2,4-D) and (4-chloro-2-methylphenoxy)acetic acid (MCPA), auxin mimics. […] Plants were treated postemergence at the 2-4 leaf growth stage, and each treatment was replicated three times. […] Plants were watered as needed. […] Results are means of the three replicates.

[8] = g a.i./ha: Cpd 2 100, Atrazine 1680, S-Metolachlor 1870
[9] = 19 DAA, g a.i./ha: Cpd 2 50, S-Metolachlor 1870
[10] = 19 DAA, g a.i./ha: Cpd 2 100, Atrazine 1680, S-Metolachlor 1870
[11] = 19 DAA, g a.i./ha: Cpd 2 150, S-Metolachlor 1870
[12] = 29 DAA, g a.i./ha: Cpd 2 50, S-Metolachlor 1870
[13] = 29 DAA, g a.i./ha: Cpd 2 100, Atrazine 1680, S-Metolachlor 1870
[14] = 29 DAA, g a.i./ha: Cpd 2 150, S-Metolachlor 1870
[15] = 56 DAA, g a.i./ha: Cpd 2 50, S-Metolachlor 1870
[16] = 56 DAA, g a.i./ha: Cpd 2 100, Atrazine 1680, S-Metolachlor 1870
[17] = 56 DAA, g a.i./ha: Cpd 2 150, S-Metolachlor 1870

Compound: COC(=O)c1nc(C2CC2)nc(N)c1Cl [Compound 2, methyl 6-amino-5-chloro-2-cyclopropyl-4-pyrimidinecarboxylate]
- IPOHE Obs ([1]; g a.i./ha: Cpd 2 50, S-Metolachlor 1870): 13%
- IPOHE Obs [1, 8]: 5%
- IPOHE Obs ([1]; g a.i./ha: Cpd 2 150, S-Metolachlor 1870): 20%
- ABUTH Obs (velvetleaf (ABUTH); [9]): 28%
- ABUTH Obs (velvetleaf (ABUTH); [10]): 45%
- ABUTH Obs (velvetleaf (ABUTH); [11]): 58%
- ABUTH Obs (velvetleaf (ABUTH); [12]): 43%
- ABUTH Obs (velvetleaf (ABUTH); [13]): 68%
- ABUTH Obs (velvetleaf (ABUTH); [14]): 90%
- ABUTH Obs (velvetleaf (ABUTH); [15]): 18%
- ABUTH Obs (velvetleaf (ABUTH); [16]): 60%
- ABUTH Obs (velvetleaf (ABUTH); [17]): 85%
- DIGSA Obs (large crabgrass (DIGSA); 16 DAA, Cpd 2 30 g a.i./ha alone or with glufosinate 470 or glyphosate 1120): 0%
- DIGSA Obs (large crabgrass (DIGSA); 16 DAA, Cpd 2 60 g a.i./ha alone or with atrazine 1120, glufosinate 470 or glyphosate 1120): 0%
- DIGSA Obs (large crabgrass (DIGSA); 31 DAA, Cpd 2 30 g a.i./ha alone or with glufosinate 470 or glyphosate 1120): 0%
- DIGSA Obs (large crabgrass (DIGSA); 31 DAA, Cpd 2 60 g a.i./ha alone or with atrazine 1120, glufosinate 470 or glyphosate 1120): 2%
- ZEAMD Obs (corn (ZEAMD) [2]; hybrid Pioneer 33P65 RR, corn (Zea mays ssp. indentata), in vivo, 28 days after application): 0%
- AMARE Obs (redroot pigweed (AMARE); 28 DAA, g a.i./ha: Cpd 2 25, Atrazine 250): 30
- AMARE Obs (redroot pigweed (AMARE); 28 DAA, g a.i./ha: Cpd 2 50, Atrazine 500): 90
- AMARE Obs (redroot pigweed (AMARE); 28 DAA, g a.i./ha: Cpd 2 75, Atrazine 750): 98
- AMARE Obs (redroot pigweed (AMARE); 28 DAA, g a.i./ha: Cpd 2 100, Atrazine 1000): 93
- AMARE Obs (redroot pigweed (AMARE); 28 DAA, g a.i./ha: Cpd 2 150, Atrazine 1500): 82
- AMARE Obs (redroot pigweed (AMARE); 55 DAA, g a.i./ha: Cpd 2 25, Atrazine 250): 100
- AMARE Obs (redroot pigweed (AMARE); 55 DAA, g a.i./ha: Cpd 2 50, Atrazine 500): 100
- AMARE Obs (redroot pigweed (AMARE); 55 DAA, g a.i./ha: Cpd 2 75, Atrazine 750): 100
- AMARE Obs (redroot pigweed (AMARE); 55 DAA, g a.i./ha: Cpd 2 100, Atrazine 1000): 100
- AMARE Obs (redroot pigweed (AMARE); 55 DAA, g a.i./ha: Cpd 2 150, Atrazine 1500): 100
- BRAPL Obs (alexandergrass (BRAPL); 16 DAA, Cpd 2/Cpd 1 at 62 g a.i./ha): 40
- BRAPL Obs (alexandergrass (BRAPL); 16 DAA, Cpd 2/Cpd 1 at 125 g a.i./ha): 70
- BRAPL Obs (alexandergrass (BRAPL); 30 DAA, Cpd 2/Cpd 1 at 62 g a.i./ha): 0
- BRAPL Obs (alexandergrass (BRAPL); 30 DAA, Cpd 2/Cpd 1 at 125 g a.i./ha): 75
- BRAPL Obs (alexandergrass (BRAPL); 44 DAA, Cpd 2/Cpd 1 at 62 g a.i./ha): 0
- BRAPL Obs (alexandergrass (BRAPL); 44 DAA, Cpd 2/Cpd 1 at 125 g a.i./ha): 60
- BRAPL Obs (alexandergrass (BRAPL); 62 DAA, Cpd 2/Cpd 1 at 62 g a.i./ha): 0
- BRAPL Obs (alexandergrass (BRAPL); 62 DAA, Cpd 2/Cpd 1 at 125 g a.i./ha): 0
- BRAPL Obs (alexandergrass (BRAPL); 91 DAA, Cpd 2/Cpd 1 at 62 g a.i./ha): 0
- BRAPL Obs (alexandergrass (BRAPL); 91 DAA, Cpd 2/Cpd 1 at 125 g a.i./ha): 0
- POLPY Obs ([3]; 14 DAA, 30 g a.i./ha): 20%
- POLPY Obs ([3]; 14 DAA, 60 g a.i./ha): 40%
- POLPY Obs ([3]; 28 DAA, 30 g a.i./ha): 20%
- POLPY Obs ([3]; 28 DAA, 60 g a.i./ha): 40%
- SETFA Obs (giant foxtail (SETFA); [9]): 33%
- SETFA Obs (giant foxtail (SETFA); [10]): 40%
- SETFA Obs (giant foxtail (SETFA); [11]): 43%
- SETFA Obs (giant foxtail (SETFA); [12]): 32%
- SETFA Obs (giant foxtail (SETFA); [13]): 42%
- SETFA Obs (giant foxtail (SETFA); [14]): 47%
- SETFA Obs (giant foxtail (SETFA); [15]): 8%
- SETFA Obs (giant foxtail (SETFA); [16]): 7%
- SETFA Obs (giant foxtail (SETFA); [17]): 17%
- ZEAMD Obs (corn (ZEAMD) [4]; hybrid Pioneer 36B10, corn (Zea mays ssp. indentata), in vivo, 62 days after application): 0%
- CHEAL Obs ([5]; 14 DAA, 30 g a.i./ha): 100%
- CHEAL Obs ([5]; 14 DAA, 60 g a.i./ha): 100%
- CHEAL Obs ([5]; 28 DAA, 30 g a.i./ha): 100%
- CHEAL Obs ([5]; 28 DAA, 60 g a.i./ha): 100%
- ZEAMD Obs (corn (ZEAMD) [6]): 0
- Postemergence CHEAL Obs ([7]; Cpd 2 alone 4 g a.i./ha): 53
- Postemergence CHEAL Obs ([7]; Cpd 2 alone 8 g a.i./ha): 55
- Postemergence CHEAL Obs ([7]; Cpd 2 alone 16 g a.i./ha): 55

Compound: CCc1cccc(C)c1N(C(=O)CCl)[C@@H](C)COC [S-Metolachlor, S-metolachlor, reference compound]
- IPOHE Obs [1, 8]: 23%
- ABUTH Obs (velvetleaf (ABUTH); [10]): 28%
- ABUTH Obs (velvetleaf (ABUTH); [13]): 42%
- ABUTH Obs (velvetleaf (ABUTH); [16]): 18%
- ZEAMD Obs (corn (ZEAMD) [2]; 28 DAA, g a.i./ha: Cpd 2 100, Atrazine 1680, S-Metolachlor 1870): 0%
- SETFA Obs (giant foxtail (SETFA); [10]): 93%
- SETFA Obs (giant foxtail (SETFA); [13]): 100%
- SETFA Obs (giant foxtail (SETFA); [16]): 94%
- ZEAMD Obs (corn (ZEAMD) [4]; 14 DAA, 1000 g a.i./ha): 10%
- ZEAMD Obs (corn (ZEAMD) [4]; 28 DAA, 1000 g a.i./ha): 8%
- ZEAMD Obs (corn (ZEAMD) [4]; 62 DAA, 1000 g a.i./ha): 0%
